One data set relates to mouse P-gp. As to the kind of experiment: Transcellular P-gp assay (mouse P-gp). In kind it is in vitro ADME. Conditions: LLC-PK1, first value of cell, transfected LLC-PK cells; for efflux ratio: read-out: Apical Efflux Ratio; for Papp: read-out: Permeability. From the text: (§1) The general assay uses transfected LLC-PKT cells (porcine kidney epithelial cells) over-expressing human or mouse P-gp, cultured on 96 well semi-permeable filter membrane plates, where they form a polarized monolayer with tight junctions, and act as a barrier between the apical and basolateral compartment.
(§2) P-gp is expressed in the apical-facing membrane of the monolayer.
(§3) The tightness of the cell monolayer and functional activity of P-gp are confirmed by addition of a cell-impermeable marker, Lucifer yellow, and a reference P-gp substrate, edoxaban, respectively.

The target in the next data set is T1, human P-gp (Homo sapiens, UniProt P08183).
T1 construct: expressed in transfected cells; host or cells: LLC-PKT (so in the source) porcine kidney epithelial cells
T1 sequence (P08183 whole entry): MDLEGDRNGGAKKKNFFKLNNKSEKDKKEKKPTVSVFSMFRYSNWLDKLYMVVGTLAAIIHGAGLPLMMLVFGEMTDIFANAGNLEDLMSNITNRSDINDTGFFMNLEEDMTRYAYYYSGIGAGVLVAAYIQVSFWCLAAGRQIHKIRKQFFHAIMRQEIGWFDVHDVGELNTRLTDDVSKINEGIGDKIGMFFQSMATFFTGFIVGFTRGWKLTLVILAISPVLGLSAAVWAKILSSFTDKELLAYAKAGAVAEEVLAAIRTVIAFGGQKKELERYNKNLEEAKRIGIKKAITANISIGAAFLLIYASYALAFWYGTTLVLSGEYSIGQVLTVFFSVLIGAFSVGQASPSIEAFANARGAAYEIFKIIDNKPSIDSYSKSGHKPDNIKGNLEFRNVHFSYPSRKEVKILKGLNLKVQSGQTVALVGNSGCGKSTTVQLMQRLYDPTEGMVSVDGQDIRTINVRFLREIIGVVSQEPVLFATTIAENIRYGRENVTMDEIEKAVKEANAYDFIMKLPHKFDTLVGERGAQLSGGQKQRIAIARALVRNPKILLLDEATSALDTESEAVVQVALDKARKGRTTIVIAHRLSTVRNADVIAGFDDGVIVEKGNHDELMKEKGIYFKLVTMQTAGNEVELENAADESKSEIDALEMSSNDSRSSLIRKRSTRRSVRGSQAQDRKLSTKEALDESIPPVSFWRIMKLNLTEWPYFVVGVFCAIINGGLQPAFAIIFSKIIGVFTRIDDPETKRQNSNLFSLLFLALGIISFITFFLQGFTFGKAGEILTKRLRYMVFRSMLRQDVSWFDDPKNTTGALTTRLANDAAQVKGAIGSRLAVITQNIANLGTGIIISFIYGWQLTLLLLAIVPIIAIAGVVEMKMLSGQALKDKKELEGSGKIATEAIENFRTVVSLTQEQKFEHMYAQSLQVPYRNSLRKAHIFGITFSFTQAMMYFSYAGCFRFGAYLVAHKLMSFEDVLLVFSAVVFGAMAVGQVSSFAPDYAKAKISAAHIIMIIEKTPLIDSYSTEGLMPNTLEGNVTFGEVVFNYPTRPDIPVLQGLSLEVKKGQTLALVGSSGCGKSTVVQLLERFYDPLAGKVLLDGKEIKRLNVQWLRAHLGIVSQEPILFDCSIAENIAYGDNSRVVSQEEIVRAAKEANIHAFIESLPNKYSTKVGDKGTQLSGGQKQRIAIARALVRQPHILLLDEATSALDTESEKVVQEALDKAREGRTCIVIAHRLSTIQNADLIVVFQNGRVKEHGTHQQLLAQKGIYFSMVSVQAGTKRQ
In words: Transcellular P-gp assay (human P-gp). In kind it is in vitro ADME. Conditions: LLC-PK1, second value of cell, transfected LLC-PK cells; for efflux ratio: read-out: Apical Efflux Ratio; for Papp: read-out: Permeability.
Source text: as §1, §2, §3

Data set [1] concerns the target T2, hERG cardiac potassium channel (Homo sapiens, UniProt Q12809).
T2 construct: Evotec (cryopreserved cells) ATCC PTA-6812; host or cells: CHO crelox hERG cell line (Chinese hamster)
As to the kind of experiment: hERG screening assay (automated patch clamp). In kind it is cell-based. The following applies: CHO crelox hERG cells, whole-cell patch clamp, 35-37° C. From the text:
In the drug development process of small molecules, one of the most frequent adverse side effects, leading to the failure of drugs, is the cardiac arrhythmias. Such failure is often related to the capacity of the drug to inhibit the human ether-a-go-go-related gene (hERG) cardiac potassium channel. Having no or low inhibition of the hERG cardiac potassium channel is therefore considered as beneficial.
The CHO crelox hERG cell line (ATCC reference Nr. PTA-6812, female Chinese hamster cells) was generated and validated at Roche. Ready-to-use frozen instant CHO-hERG cells were cryopreserved at Evotec (Germany) and used directly in the experiments.
The extracellular solution contains (in mM): NaCl 150; KCl 4; CaCl2 1; MgCl2 1; HEPES 10; pH 7.2-7.4 with NaOH, osmolarity 290-330 mOsm. […]
The effects of a compound on hERG K+-currents parameters will be evaluated at 2 concentrations in at least 4 cells.
The hERG test is performed using automated patch clamp system SynchroPatch® 384 (Nanion Technologies GmbH, Germany). K+ currents are measured with the patch-voltage-clamp technique in the whole-cell configuration at 35-37° C. […]
The amplitudes of IKhERG were recorded in each concentration of drug and they were compared to the vehicle control values (taken as 100%) to define fractional blocks. […]

Structures are written as SMILES.

As usually defined, the IC20 is the concentration needed for an effect of 20%.

T2 sequence (Q12809 whole entry): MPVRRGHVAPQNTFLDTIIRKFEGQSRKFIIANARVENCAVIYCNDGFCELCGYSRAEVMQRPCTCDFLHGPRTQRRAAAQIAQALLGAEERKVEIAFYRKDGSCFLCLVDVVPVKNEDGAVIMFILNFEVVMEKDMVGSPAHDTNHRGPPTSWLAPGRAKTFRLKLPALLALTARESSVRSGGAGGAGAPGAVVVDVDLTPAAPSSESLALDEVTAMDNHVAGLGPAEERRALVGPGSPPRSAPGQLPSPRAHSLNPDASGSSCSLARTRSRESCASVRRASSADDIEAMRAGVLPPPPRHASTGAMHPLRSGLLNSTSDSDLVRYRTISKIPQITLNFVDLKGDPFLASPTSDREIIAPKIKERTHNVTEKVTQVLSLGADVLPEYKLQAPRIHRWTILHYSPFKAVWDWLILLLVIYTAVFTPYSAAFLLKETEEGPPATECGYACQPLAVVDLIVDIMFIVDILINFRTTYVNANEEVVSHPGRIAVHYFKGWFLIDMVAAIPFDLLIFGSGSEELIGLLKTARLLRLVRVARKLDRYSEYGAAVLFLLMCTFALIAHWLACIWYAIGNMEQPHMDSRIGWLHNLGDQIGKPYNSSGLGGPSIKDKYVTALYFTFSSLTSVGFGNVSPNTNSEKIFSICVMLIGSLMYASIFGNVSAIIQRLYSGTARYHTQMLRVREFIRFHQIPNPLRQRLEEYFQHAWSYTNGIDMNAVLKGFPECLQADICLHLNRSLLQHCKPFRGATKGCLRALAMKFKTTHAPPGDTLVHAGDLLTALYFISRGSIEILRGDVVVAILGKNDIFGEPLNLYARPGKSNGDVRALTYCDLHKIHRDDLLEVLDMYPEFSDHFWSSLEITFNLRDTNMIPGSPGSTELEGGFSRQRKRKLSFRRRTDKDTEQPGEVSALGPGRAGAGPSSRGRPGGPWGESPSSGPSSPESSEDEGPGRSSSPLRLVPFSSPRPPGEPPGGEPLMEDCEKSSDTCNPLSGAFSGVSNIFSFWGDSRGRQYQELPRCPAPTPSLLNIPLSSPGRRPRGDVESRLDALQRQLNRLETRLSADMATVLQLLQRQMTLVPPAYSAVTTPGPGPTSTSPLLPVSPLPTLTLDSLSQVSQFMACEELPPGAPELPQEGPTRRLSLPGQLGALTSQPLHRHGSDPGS

As for `Cn1c(-c2ccc3c(c2O)CCO3)nnc(N[C@@H]2CCCN(CCO)C2)c1=O` [Example 1, 3-(4-Hydroxy-2,3-dihydrobenzofuran-5-yl)-6-[[(3R)-1-(2-hydroxyethyl)-3-piperidyl]amino]-4-methyl-1,2,4-triazin-5-one], in the data set on mouse P-gp, the efflux ratio was determined as 8.6 and the Papp came to 4.7 ×10⁻⁶ cm/s. Also, on human P-gp, the efflux ratio came out at 4.8 and the Papp was 4.7 ×10⁻⁶ cm/s. Besides, the concentration for an effect of 20% (IC20) in data set [1] was > 10 µM.

In the case of `CCN1CCC[C@@H](Nc2nnc(-c3ccc4c(c3O)CCO4)n(C)c2=O)C1` [RE-A, 6-[[(3R)-1-Ethyl-3-piperidyl]amino]-3-(4-hydroxy-2,3-dihydrobenzofuran-5-yl)-4-methyl-1,2,4-triazin-5-one, reference compound], the efflux ratio turned out to be 2 in the data set with mouse P-gp and 1.2 on human P-gp. For the same compound, the Papp with mouse P-gp was 23.2 ×10⁻⁶ cm/s; at human P-gp, 25 ×10⁻⁶ cm/s.

In the case of `Cn1c(-c2ccc3c(c2O)CCC3)nnc(N[C@@H]2CCCN(CCO)C2)c1=O` [Example 2, 6-[[(3R)-1-(2-Hydroxyethyl)-3-piperidyl]amino]-3-(4-hydroxyindan-5-yl)-4-methyl-1,2,4-triazin-5-one], the efflux ratio is 10 in the data set with mouse P-gp and 4.8 at human P-gp. For the same compound, the results for the Papp in the data set with mouse P-gp and on human P-gp were 17 ×10⁻⁶ cm/s and 19 ×10⁻⁶ cm/s, respectively. Moreover, the IC20 in data set [1] is > 10 µM.

(Values after US20260109689A1, “NOVEL COMPOUNDS” (Hoffmann-La Roche Inc., priority 2023, published 2026).)
